Reference: US20200390767A1, “Formulations of 4-(7-Hydroxy-2-isopropyl-4-oxo-4H-quinazolin-3-yl)-benzonitrile” (NOVARTIS AG, priority 2019, published 2020)

System: corneal sensitivity
Assay: First in human study, esthesiometry assessment (Part 3)
Type: in vivo
Conditions: single eye drop; for anesthetic effect on the cornea: healthy subjects
Description: Part 3 was an esthesiometry assessment to evaluate the anesthetic properties of compound I. Part 3 of the study had four arms, with compound I, vehicle, tetracaine (0.5% ophthalmic solution, used as a positive control) and diclofenac sodium (0.1% ophthalmic solution, used as the active NSAID comparator). Ocular anesthetic was selected because of its established anesthetic effect; however it is not the standard of care due to its negative effect on wound healing. NSAID is the current standard of care for corneal pain after PRK with minimal anesthetic but significant pain control properties. Vehicle eye drops were used as a negative control to enable better determination of the potential anesthetic effect. Twelve healthy subjects, who met the eligibility criteria, were randomized to receive a single eye drop of 4 study treatments, each during 1 of 4 different study days (Days 1, 4, 7 and 10). Each subject was randomized to receive the study treatment according to one of the following four sequences: • Sequence 1: Anesthetic, NSAID, compound I 2.5%, Vehicle • Sequence 2: NSAID, Vehicle, Anesthetic, compound I 2.5% • Sequence 3: Vehicle, compound I 2.5%, NSAID, Anesthetic • Sequence 4: compound I 2.5%, Anesthetic, Vehicle, NSAID
The first-in-human study further evaluated potential anesthetic effect of topical ocular 2.5% compound I by esthesiometry testing, i.e. measurement of the filament length (cm) when the threshold of cornea touch is perceived.

| Compound | duration of action of anesthetic effect | anesthetic effect on the cornea |
| --- | --- | --- |
| CCCCNc1ccc(C(=O)OCCN(C)C)cc1 [tetracaine 0.5%, tetracaine] | approximately 10 minutes | had an anesthetic effect |
| O=C(O)Cc1ccccc1Nc1c(Cl)cccc1Cl [diclofenac 0.1%, diclofenac sodium] |  | no anesthetic effect |
